Patent publication US20260207569A1, “LPA1 ANTAGONISTS FOR TREATING INTERSTITIAL LUNG DISEASE” (Bristol-Myers Squibb Company, priority 2022, published 2026)

Experiments:
[1] = Phase 2 PPF cohort safety: adverse events, prespecified asymptomatic or symptomatic blood pressure reduction criteria, dose reductions; assay type: in vivo, human; details: for Patients with asymptomatic blood pressure reduction, (%) / Patients with asymptomatic blood pressure reduction, no. / Patients with symptomatic blood pressure reduction, (%) / Patients with symptomatic blood pressure reduction, no.: prespecified criteria
Method: A total of 123 participants with PPF were randomized. Participants (age ≥21 years) were randomized (1:1:1) to receive 30 mg or 60 mg Compound A or PBO twice daily for 26 weeks. […] Immunosuppressive medications (mycophenolate mofetil, mycophenolic acid, azathioprine and/or tacrolimus) were permitted only if dosing is stable for ≥6 months prior to screening. If receiving antifibrotic agents pirfenidone or nintedanib, patients had to receive a stable dosage for ≥3 months prior to screening and during the screening period; if not receiving pirfenidone or nintedanib, patients had to be naive to both drugs or not have received either 4 weeks prior to Day 1. A total of 47 (38.2%) subjects were receiving antifibrotic treatment (with or without immunosuppression therapy). Of those subjects, 34 were being treated with nintedanib and 13 with pirfenidone. Participants were stratified by usual interstitial pneumonia (UIP) pattern (presence versus absence) and background therapy (antifibrotics +/−ILD-targeted immunosuppression versus ILD-targeted immunosuppression alone versus none). UIP pattern was present in 52% of subjects and unclassifiable ILD was he most common disease categorization.
Patient is experiencing any of the following, confirmed by retest within 15 minutes: • Seated systolic blood pressure <85 mmHg • Seated diastolic blood pressure <55 mmHg • Orthostatic hypotension
Patient is experiencing symptoms that, in the investigator's opinion, could be associated with a reduction in blood pressure and is also experiencing at least one of the following, confirmed by retest within 15 minutes: • Seated systolic blood pressure <100 mmHg or seated diastolic blood pressure <60 mmHg • Decrease of seated systolic blood pressure of ≥20 mmHg from the previous visit or decrease of seated diastolic blood pressure of ≥10 mmHg from the previous visit • Orthostatic hypotension • Orthostatic tachycardia

[2] = Phase 1 Part B multiple ascending dose (MAD), blood pressure, healthy participants; assay type: in vivo, human
Method: The study was performed in 3 parts in 112 healthy male and female participants, including 24 Japanese participants. Female participants were to be not of childbearing potential. The present study was designed to evaluate the safety and tolerability, PK, and exploratory PD of an oral suspension of Compound A. Parts A and B (Cohort B1 only) enrolled healthy participants and was conducted at a site in The Netherlands and Part B (Cohort B2 to B5) enrolled healthy non-Japanese participants and was conducted at a site in the United Kingdom (UK). Part C enrolled healthy Japanese participants and was conducted at the same site in the UK.
Part B was a MAD study in a planned number of 6 sequential dose escalation cohorts (10 mg QD, 30 mg QD, 30 mg BID, 60 mg BID, 125 mg BID, and ≤250 mg BID) of 8 healthy participants (6 active+2 placebo) each, under fasted conditions. However, Cohort B6 (≤250 mg BID) was cancelled because sufficient safety and PK data had been obtained at doses up to 125 mg BID. Eligible participants received study drug (Compound A or placebo) administered orally for 14 days.
Physical examinations, vital sign measurements (including orthostasis testing in Cohort A6, Cohort B3 to B5, and C1 to C3 at selected time points), 12-lead electrocardiogram (ECG), and clinical laboratory evaluations were performed at selected times throughout the study. In addition, Holter monitoring was performed for the first 24 hours post dose on Day 1 in Part A (not in FE/pH cohort), and also for the first 24 hours post dose on Day 1 and Day 14 in Parts B and C. Participants were closely monitored for adverse events (AEs). Blood samples were collected for up to 14 days (follow-up visit) after (last) study drug administration for PK analysis. In addition, blood and urine were collected for exploratory biomarker assessments and for biobanking of samples for potential analyses. Urine was collected for potential PK analysis for up to 96 hours after a single dose of Compound A or placebo was administered in the SAD part, and for up to 24 hours after the first (morning) dose of study drug on Day 1 and for up to 24 hours after the last (morning) dose of study drug on Day 14 in the MAD parts.

[3] = PPF cohort, 30-mg Compound A (n = 40)
[4] = PPF cohort, 60-mg Compound A (n = 42)

CCCN(C)C(=O)OCc1c(-c2ccc(O[C@H]3CCC[C@H](C(=O)O)C3)c(C)n2)nnn1C [Compound A, (1S,3S)-3-((2-methyl-6-(1-methyl-5-(((methyl(propyl)carbamoyl)-oxy)methyl)-1H-1,2,3-triazol-4-yl)pyridin-3-yl)oxy)cyclohexane-1-carboxylic acid]
Day-1 blood pressure reduction ([1]; PPF cohort): dose dependent day-1 blood pressure reduction
Marked laboratory abnormalities ([1]; PPF cohort): No notable imbalances in marked laboratory abnormalities among treatment groups
Prespecified blood pressure reduction criteria across arms ([1]; PPF cohort): increased in a dose-dependent manner
Patients with dose reductions, (%) [1, 3]: (15.0) %
Patients with dose reductions, no. [1, 3]: 6 no.
Patients with orthostatic hypotension (within asymptomatic blood pressure reduction), (%) [1, 3]: (15.0) %
Patients with orthostatic hypotension (within asymptomatic blood pressure reduction), no. [1, 3]: 6 no.
Patients with orthostatic hypotension (within symptomatic blood pressure reduction), (%) [1, 3]: (2.5) %
Patients with orthostatic hypotension (within symptomatic blood pressure reduction), no. [1, 3]: 1 no.
Patients with asymptomatic blood pressure reduction, (%) [1, 3]: (22.5) %
Patients with asymptomatic blood pressure reduction, no. [1, 3]: 9 no.
Patients with symptomatic blood pressure reduction, (%) [1, 3]: (5.0) %
Patients with symptomatic blood pressure reduction, no. [1, 3]: 2 no.
Patients with dose reductions, (%) [1, 4]: (11.9) %
Patients with dose reductions, no. [1, 4]: 5 no.
Patients with orthostatic hypotension (within asymptomatic blood pressure reduction), (%) [1, 4]: (26.2) %
Patients with orthostatic hypotension (within asymptomatic blood pressure reduction), no. [1, 4]: 11 no.
Patients with orthostatic hypotension (within symptomatic blood pressure reduction), (%) [1, 4]: (9.5) %
Patients with orthostatic hypotension (within symptomatic blood pressure reduction), no. [1, 4]: 4 no.
Patients with asymptomatic blood pressure reduction, (%) [1, 4]: (31.0) %
Patients with asymptomatic blood pressure reduction, no. [1, 4]: 13 no.
Patients with symptomatic blood pressure reduction, (%) [1, 4]: (14.3) %
Patients with symptomatic blood pressure reduction, no. [1, 4]: 6 no.
Low BP thresholds (“events”) ([1]; PPF, 30 mg BID): 30%
COVID-19, % ([1]; PPF, 30 mg BID (n = 40)): (15.0) %
COVID-19, no. ([1]; PPF, 30 mg BID (n = 40)): 6
Cough, % ([1]; PPF, 30 mg BID (n = 40)): (7.5) %
Cough, no. ([1]; PPF, 30 mg BID (n = 40)): 3
Deaths due to TEAEs, no. ([1]; PPF, 30 mg BID (n = 40)): 0
Diarrhea, % ([1]; PPF, 30 mg BID (n = 40)): (15.0) %
Diarrhea, no. ([1]; PPF, 30 mg BID (n = 40)): 6
Discontinuations due to TEAEs, % ([1]; PPF, 30 mg BID (n = 40)): (2.5) %
Discontinuations due to TEAEs, no. ([1]; PPF, 30 mg BID (n = 40)): 1
Dizziness, no. ([1]; PPF, 30 mg BID (n = 40)): 0
Dyspnea, % ([1]; PPF, 30 mg BID (n = 40)): (5.0) %
Dyspnea, no. ([1]; PPF, 30 mg BID (n = 40)): 2
Hypertension, no. ([1]; PPF, 30 mg BID (n = 40)): 0
Hypotension, % ([1]; PPF, 30 mg BID (n = 40)): (10.0) %
Hypotension, no. ([1]; PPF, 30 mg BID (n = 40)): 4
Nausea, % ([1]; PPF, 30 mg BID (n = 40)): (10.0) %
Nausea, no. ([1]; PPF, 30 mg BID (n = 40)): 4
Orthostatic hypotension, % ([1]; PPF, 30 mg BID (n = 40)): (5.0) %
Orthostatic hypotension, no. ([1]; PPF, 30 mg BID (n = 40)): 2
Patients with ≥1 TEAE related to study drug, no. ([1]; PPF, 30 mg BID (n = 40)): 7
Patients with ≥1 TEAE, no. ([1]; PPF, 30 mg BID (n = 40)): 33
Patients with ≥1 TESAE, no. ([1]; PPF, 30 mg BID (n = 40)): 4
Rash, % ([1]; PPF, 30 mg BID (n = 40)): (7.5) %
Rash, no. ([1]; PPF, 30 mg BID (n = 40)): 3
Vomiting, % ([1]; PPF, 30 mg BID (n = 40)): (7.5) %
Vomiting, no. ([1]; PPF, 30 mg BID (n = 40)): 3
Orthostatic hypotension (asymptomatic and symptomatic) vs other groups ([1]; PPF, 60 mg BID): higher in the 60 mg group than for other groups
COVID-19, % ([1]; PPF, 60 mg BID (n = 42)): (14.3) %
COVID-19, no. ([1]; PPF, 60 mg BID (n = 42)): 6
Cough, % ([1]; PPF, 60 mg BID (n = 42)): (11.9) %
Cough, no. ([1]; PPF, 60 mg BID (n = 42)): 5
Deaths due to TEAEs, no. ([1]; PPF, 60 mg BID (n = 42)): 0
Diarrhea, % ([1]; PPF, 60 mg BID (n = 42)): (7.1) %
Diarrhea, no. ([1]; PPF, 60 mg BID (n = 42)): 3
Discontinuations due to TEAEs, no. ([1]; PPF, 60 mg BID (n = 42)): 0
Dizziness, % ([1]; PPF, 60 mg BID (n = 42)): (9.5) %
Dizziness, no. ([1]; PPF, 60 mg BID (n = 42)): 4
Dyspnea, no. ([1]; PPF, 60 mg BID (n = 42)): 0
Hypertension, % ([1]; PPF, 60 mg BID (n = 42)): (2.4) %
Hypertension, no. ([1]; PPF, 60 mg BID (n = 42)): 1
Hypotension, % ([1]; PPF, 60 mg BID (n = 42)): (7.1) %
Hypotension, no. ([1]; PPF, 60 mg BID (n = 42)): 3
Nausea, % ([1]; PPF, 60 mg BID (n = 42)): (2.4) %
Nausea, no. ([1]; PPF, 60 mg BID (n = 42)): 1
Orthostatic hypotension, % ([1]; PPF, 60 mg BID (n = 42)): (9.5) %
Orthostatic hypotension, no. ([1]; PPF, 60 mg BID (n = 42)): 4
Patients with ≥1 TEAE related to study drug, no. ([1]; PPF, 60 mg BID (n = 42)): 11
Patients with ≥1 TEAE, no. ([1]; PPF, 60 mg BID (n = 42)): 28
Patients with ≥1 TESAE, no. ([1]; PPF, 60 mg BID (n = 42)): 5
Rash, no. ([1]; PPF, 60 mg BID (n = 42)): 0
Vomiting, no. ([1]; PPF, 60 mg BID (n = 42)): 0
Adverse event profile other than low blood pressure ([1]; PPF, 60 mg BID versus placebo): generally in favor of the 60 mg group versus placebo
Mean DBP ([2]; MAD 60 mg BID, D 14 320 h): 63 mmHg
Mean DBP ([2]; MAD 125 mg BID, D 15 336 h): 63 mmHg
Reductions in BP vs placebo ([2]; MAD BID groups): no clear differences between placebo and the Compound A groups
Reductions in mean SBP and DBP ([2]; MAD QD groups): reductions generally occurred in a Compound A dose-dependent manner
